“Also recorded” adds a separate entry of the source. Where two headings read alike, the source gives them in different places.
Experiments:
non-NMDA type receptors = details: Tetrahedron Letters 31 (28), 4049-4052 (1990); Brain Res. 550, 152-156 (1991); cited from earlier work
[1] = system: newborn rat spinal cord preparation; experiment: Measurement of depolarizing activity, newborn rat spinal cord preparation; assay type: cell-based; details: relative to L-glutamic acid = 1
NMDA receptors = experiment: Depolarization under perfusion with CPP (NMDA receptor agonism); assay type: cell-based, newborn rat; details: for depolarization on adding CPP: 3×10^-5 M CPP perfused; for NMDA type agonistic activity: electrophysiological assay, newborn rat spinal cord preparation
[2] = system: monosynaptic reflex in the newborn rat spinal cord preparation; experiment: Determination of monosynaptic reflex inhibition activity in the newborn rat spinal cord preparation; set-up: species or system newborn Wister rat; details: for concentration inhibiting (50%) monosynaptic reflex relative to the IC50 of Baclofen: as multiple of IC50 of Baclofen; for monosynaptic reflex inhibition (in words) / IC50: newborn rat spinal cord preparation; for IC50: read-out: IC50 (50% inhibitory concentration), monosynaptic reflex inhibition
Procedure: The spinal cord of a newborn Wister rat was taken out, as encircled by the spinal column, under etherization.
A single stimulation was applied to a posterior root via a suction electrode and the anterior root reflection potential of the corresponding anterior root was recorded.
DCG-I and DCG-II at various concentration were added to the perfusion solution and the monosynaptic reflexes thus caused were measured.

[3] = system: monosynaptic reflex in the newborn rat spinal cord preparation; details: reported value for Baclofen, cited from earlier work
NMDA type receptors = details: Japanese Patent Laid-Open No. 093563/1991; cited from earlier work

## N[C@H](C(=O)O)[C@@H]1[C@@H](COCc2ccccc2)[C@@H]1C(=O)O [(2S,1'R,2'R,3'R)-2-(2-carboxy-3-benzyloxymethylcyclopropyl)glycine]
non-NMDA type receptors
  non-NMDA type agonist activity: agonists of the non-NMDA type

## N[C@@H](CCC(=O)O)C(=O)O [L-glutamic acid, reference compound]
[1]
  Activity ratio: 1

## N[C@H](C(=O)O)C1[C@@H](C(=O)O)[C@@H]1C(=O)O (stereo partly drawn) [DCG-I, (2S,1'R,2'R,3'R)-2-(2,3-dicarboxycyclopropyl)glycine]
[1]
  Activity ratio: 33
NMDA receptors
  depolarization on adding CPP: completely inhibited
  NMDA type agonistic activity: agonists for NMDA receptors; also recorded: agonist of the NMDA type
[2]
  concentration inhibiting (50%) monosynaptic reflex relative to the IC50 of Baclofen: about 1/20
  monosynaptic reflex inhibition (in words): selectively inhibit monosynaptic reflex even at a low concentration
  IC50: 60 nM

## NCC(CC(=O)O)c1ccc(Cl)cc1 (stereo not drawn) [Baclofen]
[3]; in nM
  IC50: ~500 nM
[3]
  IC50: ~500 nM

## COC[C@H]1[C@H](C(=O)O)[C@@H]1[C@H](N)C(=O)O [(2S,1'R,2'R,3'R)-2-(2-carboxy-3-methoxymethylcyclopropyl)glycine]
non-NMDA type receptors
  non-NMDA type agonist activity: agonists of the non-NMDA type

## N[C@H](C(=O)O)C1[C@H](C(=O)O)[C@H]1C(=O)O (stereo partly drawn) [DCG-II, (2S,1'S,2'S,3'S)-2-(2,3-dicarboxycyclopropyl)glycine]
[1]
  Activity ratio: 0.5
NMDA receptors
  depolarization on adding CPP: completely inhibited
  NMDA type agonistic activity: agonists for NMDA receptors; also recorded: only a week agonistic activity of the NMDA type
[2]
  concentration inhibiting (50%) monosynaptic reflex relative to the IC50 of Baclofen: twice
  monosynaptic reflex inhibition (in words): selectively inhibit monosynaptic reflex even at a low concentration
  IC50: 1000 nM

## N[C@H](C(=O)O)[C@@H]1C[C@@H]1C(=O)O [(2S,1'R,2'S)-2-(2-carboxycyclopropyl)glycine]
NMDA type receptors
  NMDA type agonist activity: potent agonist of the NMDA type superior to NMDA

Source: patent publication US5334757A, “2-(2,3-dicarboxycyclopropyl) glycine and method for producing the same” (Suntory Limited, priority 1991, dated 1994)
